Experimental data taken from patent publication US12649723B2, “Carbonohydrazonoyl dicyanide compounds comprising 2 or more aryl or heteroaryl connected via linker and use thereof” (KOREA INSTITUTE OF SCIENCE AND TECHNOLOGY, priority 2020, dated 2026).

What was measured:
[1] = Liver microsome stability; format: in vitro ADME, human; settings: amount of substrate remaining; compound 1 μM, 30 minutes, 37° C., NADPH
Outline: (§1)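 Human, dog, rat and mouse liver microsomes (0.25 mg/mL) with 1 μM compound in 0.1 M phosphate buffer pH 7.4, preincubated 5 min at 37° C, then incubated 30 min at 37° C with NADPH-generating system. Reaction stopped with acetonitrile containing internal standard; remaining parent quantified by LC-MS/MS.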

CYP3A4 = molecular target: T1, CYP3A4 (Homo sapiens, UniProt P08684); test: Inhibitory effect on CYP coenzyme activity, human liver microsomes; format: in vitro ADME; settings: compound 10 μM; human liver microsomes 0.25 mg/mL; substrate midazolam; 15 minutes
T1 construct: human liver microsomes (0.25 mg/mL); from tissue; host or cells: human liver microsomes
T1 sequence (P08684 whole entry): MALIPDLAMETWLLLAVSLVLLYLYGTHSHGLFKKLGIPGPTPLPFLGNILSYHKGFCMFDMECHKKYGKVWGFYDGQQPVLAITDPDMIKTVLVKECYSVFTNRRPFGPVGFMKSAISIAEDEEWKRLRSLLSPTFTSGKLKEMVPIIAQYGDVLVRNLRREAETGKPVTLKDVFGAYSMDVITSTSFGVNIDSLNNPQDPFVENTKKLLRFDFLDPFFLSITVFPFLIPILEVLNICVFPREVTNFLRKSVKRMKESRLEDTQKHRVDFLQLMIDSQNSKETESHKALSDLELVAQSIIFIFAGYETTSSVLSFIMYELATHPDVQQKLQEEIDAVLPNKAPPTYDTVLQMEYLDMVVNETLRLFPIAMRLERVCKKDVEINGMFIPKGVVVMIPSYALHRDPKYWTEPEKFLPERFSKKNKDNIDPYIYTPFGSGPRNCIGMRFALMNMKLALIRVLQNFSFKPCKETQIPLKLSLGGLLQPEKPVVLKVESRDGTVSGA
Outline: (§2)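 Activity remaining with 10 μM test compound was determined from MRM-quantified metabolite formation. The reaction used human microsomal protein (0.25 mg/mL) in pH 7.4 buffer with a mixed five-substrate cocktail, a 5-min 37 °C preincubation, and 15 min of NADPH-supported turnover.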

CYP2C9 = molecular target: T2, CYP2C9 (Homo sapiens, UniProt P11712); test: as above; format: in vitro ADME; settings: compound 10 μM; human liver microsomes 0.25 mg/mL; substrate diclofenac; 15 minutes
T2 construct: human liver microsomes (0.25 mg/mL); from tissue; host or cells: human liver microsomes
T2 sequence (P11712 whole entry): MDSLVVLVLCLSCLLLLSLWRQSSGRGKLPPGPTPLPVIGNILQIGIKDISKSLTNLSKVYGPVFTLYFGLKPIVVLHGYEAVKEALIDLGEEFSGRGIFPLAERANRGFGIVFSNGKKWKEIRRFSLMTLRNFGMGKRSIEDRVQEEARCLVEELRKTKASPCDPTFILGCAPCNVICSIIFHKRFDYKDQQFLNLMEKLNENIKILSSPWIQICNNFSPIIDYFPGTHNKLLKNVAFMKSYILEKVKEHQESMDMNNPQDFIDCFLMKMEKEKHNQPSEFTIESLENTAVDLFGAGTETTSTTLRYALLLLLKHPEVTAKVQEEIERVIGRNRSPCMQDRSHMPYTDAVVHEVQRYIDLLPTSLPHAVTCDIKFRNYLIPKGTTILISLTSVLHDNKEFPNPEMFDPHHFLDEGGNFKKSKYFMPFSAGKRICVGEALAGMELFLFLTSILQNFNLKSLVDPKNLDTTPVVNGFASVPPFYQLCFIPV
Outline: as §2

CYP2D6 = molecular target: T3, CYP2D6 (Homo sapiens, UniProt P10635); test: as above; format: in vitro ADME; settings: compound 10 μM; human liver microsomes 0.25 mg/mL; substrate dextromethorphan; 15 minutes
T3 construct: human liver microsomes (0.25 mg/mL); from tissue; host or cells: human liver microsomes
T3 sequence (P10635 whole entry): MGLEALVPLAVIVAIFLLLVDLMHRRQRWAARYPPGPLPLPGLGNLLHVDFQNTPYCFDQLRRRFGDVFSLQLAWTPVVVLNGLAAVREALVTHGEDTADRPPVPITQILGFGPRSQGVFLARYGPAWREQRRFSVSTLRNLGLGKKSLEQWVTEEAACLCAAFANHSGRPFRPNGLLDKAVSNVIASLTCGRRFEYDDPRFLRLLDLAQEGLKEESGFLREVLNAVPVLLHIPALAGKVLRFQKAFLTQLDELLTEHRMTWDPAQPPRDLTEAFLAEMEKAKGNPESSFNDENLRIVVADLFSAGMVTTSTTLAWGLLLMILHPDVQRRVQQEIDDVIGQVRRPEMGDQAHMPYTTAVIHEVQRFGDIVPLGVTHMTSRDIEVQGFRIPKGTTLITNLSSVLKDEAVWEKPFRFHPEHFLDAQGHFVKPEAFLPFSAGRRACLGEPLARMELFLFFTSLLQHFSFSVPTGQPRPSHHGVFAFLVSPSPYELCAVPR
Outline: as §2

CYP1A2 = molecular target: T4, CYP1A2 (Homo sapiens, UniProt P05177); test: as above; format: in vitro ADME; settings: compound 10 μM; human liver microsomes 0.25 mg/mL; substrate phenacetin; 15 minutes
T4 construct: human liver microsomes (0.25 mg/mL); from tissue; host or cells: human liver microsomes
T4 sequence (P05177 1-516): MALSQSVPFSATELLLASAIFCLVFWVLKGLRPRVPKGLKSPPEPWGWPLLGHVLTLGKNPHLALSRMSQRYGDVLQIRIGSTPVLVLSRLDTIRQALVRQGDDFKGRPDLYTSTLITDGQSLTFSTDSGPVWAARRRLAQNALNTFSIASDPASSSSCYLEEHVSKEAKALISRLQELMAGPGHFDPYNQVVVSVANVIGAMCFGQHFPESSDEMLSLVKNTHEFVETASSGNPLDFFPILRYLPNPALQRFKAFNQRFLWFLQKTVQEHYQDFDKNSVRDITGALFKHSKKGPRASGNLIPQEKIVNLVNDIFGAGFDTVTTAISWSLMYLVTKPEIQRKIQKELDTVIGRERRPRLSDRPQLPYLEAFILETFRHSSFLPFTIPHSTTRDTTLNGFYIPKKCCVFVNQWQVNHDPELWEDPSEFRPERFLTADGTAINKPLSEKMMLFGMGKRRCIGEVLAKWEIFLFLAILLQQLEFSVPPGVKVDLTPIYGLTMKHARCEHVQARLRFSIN
Outline: as §2

CYP2C19 = molecular target: T5, CYP2C19 (Homo sapiens, UniProt P33261); test: as above; format: in vitro ADME; settings: compound 10 μM; human liver microsomes 0.25 mg/mL; substrate S-mephenytoin; 15 minutes
T5 construct: human liver microsomes (0.25 mg/mL); from tissue; host or cells: human liver microsomes
T5 sequence (P33261 whole entry): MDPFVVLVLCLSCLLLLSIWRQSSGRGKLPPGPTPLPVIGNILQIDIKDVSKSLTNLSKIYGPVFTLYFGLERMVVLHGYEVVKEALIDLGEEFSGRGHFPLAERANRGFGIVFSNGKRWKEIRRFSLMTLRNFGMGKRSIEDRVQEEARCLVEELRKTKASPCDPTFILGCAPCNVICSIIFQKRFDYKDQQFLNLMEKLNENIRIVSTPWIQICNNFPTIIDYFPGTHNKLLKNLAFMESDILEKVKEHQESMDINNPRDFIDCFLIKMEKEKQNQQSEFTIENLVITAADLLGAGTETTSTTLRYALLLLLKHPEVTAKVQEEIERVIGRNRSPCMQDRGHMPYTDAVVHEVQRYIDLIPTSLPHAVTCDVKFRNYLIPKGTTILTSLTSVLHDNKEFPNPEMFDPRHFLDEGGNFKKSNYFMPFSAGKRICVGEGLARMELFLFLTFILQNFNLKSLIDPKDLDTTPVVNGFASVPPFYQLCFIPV
Outline: as §2

tau protein = molecular target: T6, tau protein (Homo sapiens, UniProt P10636); test: Tau-BiFC cell model: inhibition of tau protein aggregation; format: cell-based; settings: for remaining activity at 10 µM: 48 h, compound 10 μM, BiFC fluorescence, Forskolin-only group = 100% tau protein-aggregated state, read-out: Response (% @10 μM); for IC50: Tau BiFC in cells, with Forskolin 30 μM, 48 hours
T6 construct: fused on or other part: Split fluorescent-protein halves for BiFC are fused to tau; In the published tau-BiFC line these are Venus VN173 and VC155
T6 sequence (P10636 2-441 isoform P10636-8 limits assumed): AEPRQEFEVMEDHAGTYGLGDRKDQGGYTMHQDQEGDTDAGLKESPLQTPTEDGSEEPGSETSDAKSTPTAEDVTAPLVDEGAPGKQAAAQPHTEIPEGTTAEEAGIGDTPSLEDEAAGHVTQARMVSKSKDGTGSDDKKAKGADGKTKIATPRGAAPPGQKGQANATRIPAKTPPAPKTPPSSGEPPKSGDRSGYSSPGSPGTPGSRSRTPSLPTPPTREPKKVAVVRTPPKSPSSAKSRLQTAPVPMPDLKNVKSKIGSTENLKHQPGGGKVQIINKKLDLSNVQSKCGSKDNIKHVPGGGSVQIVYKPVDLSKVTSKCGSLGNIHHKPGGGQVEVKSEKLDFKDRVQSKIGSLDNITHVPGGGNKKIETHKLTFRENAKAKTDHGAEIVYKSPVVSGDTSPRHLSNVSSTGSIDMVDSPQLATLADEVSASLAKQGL
Outline: (§3)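 Aggregation was induced by 30 μM Forskolin co-applied with test compound for 48 h, with screening at 1, 3, 10 μM and dose-response at 0.03–30 μM. Nuclei were stained with Hoechst (2 μg/mL) and counted against Forskolin-only wells for cytotoxicity. Inhibition came from BiFC fluorescence relative to Forskolin-only versus untreated cells, with IC50 by nonlinear regression.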

[2] = Liver microsome stability; format: in vitro ADME, rat; settings: amount of substrate remaining; compound 1 μM, 30 minutes, 37° C., NADPH
Outline: as §1

[3] = Liver microsome stability; format: in vitro ADME, mouse; settings: amount of substrate remaining; compound 1 μM, 30 minutes, 37° C., NADPH
Outline: as §1

Tau-BiFC cells = test: Cell viability (cytotoxicity) in tau-BiFC cells, count of stained nuclei; format: cell-based; settings: compound 10 μM; Forskolin-only group = 100% cell viability
Outline: as §3

[4] = Liver microsome stability; format: in vitro ADME, dog; settings: amount of substrate remaining; compound 1 μM, 30 minutes, 37° C., NADPH
Experimental: The stability of liver microsomes due to the compounds prepared according to Examples 1 to 175 was confirmed. Specifically, four types of liver microsomes (human, dog, rat, and mouse, each 0.25 mg/mL), a 0.1 M phosphate buffer solution (pH 7.4), and each of the compounds at a concentration of 1 μM were mixed and pre-cultured at 37° C. for 5 minutes and further cultured at 37° C. for 30 minutes together with an NADPH generation system solution added thereto. Thereafter, the reaction was terminated by adding an acetonitrile solution containing an internal standard material (chloropropamide) and centrifuged for 5 minutes (14,000 rpm, 4° C.), and then a supernatant was injected into an LC-MS/MS system for analysis of substrate drugs to thereby evaluate metabolic stability due to 8 types of compounds.
The amount of the substrate remaining after the reaction was analyzed using the Shimadzu Nexera XR system and TSQ Vantage (Thermo). In an HPLC column, Kinetex XB-C18 (2.1 mm×100 mm, particle size of 2.6 μm; Phenomenex, USA) was used, and mobile phases were (A) distilled water containing 0.1% formic acid and (B) acetonitrile containing 0.1% formic acid. Analyst software (version 1.6.3) and Xcalibur (version 1.6.1) were used for data analysis.

Structure (SMILES) | Human (%) [1] [%] | CYP3A4 (CYP3A4) | CYP2C9 (CYP2C9) | CYP2D6 (CYP2D6) | CYP1A2 (CYP1A2) | CYP2C19 (CYP2C19) | remaining activity at 10 µM (tau protein) [%] | IC50 (tau protein) [nM] | Rat (%) [2] [%] | Mouse (%) [3] [%] | Cell viability (% @10 μM) (Tau-BiFC cells) [%] | Dog (%) [4] [%]
Cc1ccc(NC(=O)c2ccc(NN=C(C#N)C#N)cn2)cn1 [Compound 38, (6-(6-methylpyridin-3-ylcarbamoyl)pyridin-3-yl)carbonohydrazonoyl dicyanide] | 99.1 | 92.4 | 49.1 | >100 | 92.5 | 83.0 | 0 | 990 | >100 | 96.4 | 110.6 | 98.8
Cc1cnc(NC(=O)c2ccc(NN=C(C#N)C#N)cc2)cn1 [Compound 45, (4-(5-methylpyrazin-2-ylcarbamoyl)phenyl)carbonohydrazonoyl dicyanide] | 96.8 | 96.7 | 80.8 | >100 | 95.5 | 83.4 | 0 | 1180 | >100 | >100 | 140.5 | >100
Cc1cc(F)cc(C(=O)Nc2ccc(NN=C(C#N)C#N)cn2)c1 [Compound 19, (6-(3-fluoro-5-methylbenzamido)pyridin-3-yl)carbonohydrazonoyl dicyanide] | 84.8 | 76.5 | 14.6 | 73 | 55.1 | 73.1 | 0 | 270 | 51.4 | 62.3 | 119.1 | 78.8
Cc1cccc(C(=O)Nc2ccc(NN=C(C#N)C#N)cn2)c1F [Compound 20, (6-(2-fluoro-3-methylbenzamido)pyridin-3-yl)carbonohydrazonoyl dicyanide] | 91.9 | 76.1 | 22.3 | 75.8 | 69.4 | 72 | 0 | 180 | 33.7 | 68.3 | 110.4 | >100
N#CC(C#N)=NNc1ccc(NC(=O)c2ccc(F)cc2)nc1 [Compound 16, (6-(4-fluorobenzamido)pyridin-3-yl)carbonohydrazonoyl dicyanide] | 91.6 | 86.9 | 40.3 | 80.8 | 71.4 | 78.6 | 0 | 110 | 61 | 67.3 | 66.2 | 59.5
Cc1cnc(C(=O)Nc2ccc(NN=C(C#N)C#N)c(C)c2)cn1 [Compound 6, (2-methyl-4-(5-methylpyrazine-2-carboxamido)phenyl)carbonohydrazonoyl dicyanide] | 77.5 | 62.2 | 38 | 75.7 | 85.2 | 64.8 | 43.9 |  | 88.4 | 74.8 | 61.3 | >100
Cc1cnc(C(=O)Nc2ccc(NN=C(C#N)C#N)cn2)cn1 [Compound 1, (6-(5-methylpyrazine-2-carboxamido)pyridin-3-yl)carbonohydrazonoyl dicyanide] | 86.5 | 85 | 71.1 | 93.1 | 80.7 | 74.6 | 0 | 400 | 56.7 | 21.2 | 94.3 | 66.9
N#CC(C#N)=NNc1ccc(NC(=O)c2cccs2)nc1 [Compound 30, (6-(thiophene-2-carboxamido)pyridin-3-yl)carbonohydrazonoyl dicyanide] | 94.8 | 95.2 | 62.9 | 89.9 | 83.9 | 81.5 | 0 | 80 | 72.4 | 70.7 | 145 | 84.7
